Measured values reported in paper PMC8431557, “Multilevel Approach for the Treatment of Giardiasis by Targeting Arginine Deiminase” (International Journal of Molecular Sciences, 2021).

Experiments:
[1] = biological target: T1, GlADI (giardial arginine deiminase) (Giardia duodenalis, UniProt E2RU36); experiment: residual activity after […] h preincubation, GlDH-coupled NADH assay; type: biochemical; set-up: gene GL50803_00112103; recombinant in pET28a(+), E. coli Rosetta 2 (DE3) pLysS; N-terminal His6 tag not cleaved; 580 residues; homodimer; 16 Cys per monomer; settings: covalent (Cys modification); 2 h, pH 8.0, 25 °C
T1 sequence (E2RU36 entry or part of it): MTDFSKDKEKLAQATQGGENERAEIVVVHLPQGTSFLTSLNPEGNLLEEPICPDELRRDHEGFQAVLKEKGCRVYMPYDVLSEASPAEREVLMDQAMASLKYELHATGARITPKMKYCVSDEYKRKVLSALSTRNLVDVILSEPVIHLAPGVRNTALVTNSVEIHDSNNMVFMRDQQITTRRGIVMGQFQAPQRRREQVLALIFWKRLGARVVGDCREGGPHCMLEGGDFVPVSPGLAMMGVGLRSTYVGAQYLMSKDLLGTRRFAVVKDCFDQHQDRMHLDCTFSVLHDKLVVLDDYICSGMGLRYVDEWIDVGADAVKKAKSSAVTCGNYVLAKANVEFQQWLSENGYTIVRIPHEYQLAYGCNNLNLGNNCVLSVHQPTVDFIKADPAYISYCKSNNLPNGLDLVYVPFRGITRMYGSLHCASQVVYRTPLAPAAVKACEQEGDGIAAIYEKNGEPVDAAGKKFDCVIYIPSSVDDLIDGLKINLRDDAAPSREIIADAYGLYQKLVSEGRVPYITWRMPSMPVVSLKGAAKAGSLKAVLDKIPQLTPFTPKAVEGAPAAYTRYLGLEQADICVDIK

[2] = biological target: T1, GlADI (giardial arginine deiminase); set-up: gene GL50803_00112103; settings: 8 mM L-arginine, pH 8.0, 25 °C
[3] = biological target: T1, GlADI (giardial arginine deiminase); experiment: residual activity after timed preincubation, GlDH-coupled NADH assay; slope of k1 vs concentration; type: biochemical; set-up: gene GL50803_00112103; recombinant in pET28a(+), E. coli Rosetta 2 (DE3) pLysS; N-terminal His6 tag not cleaved; 580 residues; homodimer; 16 Cys per monomer; settings: covalent (Cys modification), second-order inactivation rate constant, pH 8.0, 25 °C

| Structure (SMILES) | residual activity (%) [1] | also measured |
| --- | --- | --- |
| CC(=C(CCOC(=O)C(C)C)SSC(CCOC(=O)C(C)C)=C(C)N(C=O)Cc1cnc(C)nc1N)N(C=O)Cc1cnc(C)nc1N (stereo in doubt) [sulbutiamine] | all of these drugs were able to inhibit recombinant GlADI in vitro in a dose-dependent manner |  |
| O=C(O)c1cc(SSc2ccc([N+](=O)[O-])c(C(=O)O)c2)ccc1[N+](=O)[O-] [DTNB, dithio-bis-nitrobenzoic acid] | caused inactivation of the enzyme in a dose-dependent manner (Figure 1E,F) |  |
| N=C(N)NCCC[C@H](N)C(=O)O [L-arginine] |  | GlDH-coupled NADH oxidation at 340 nm [2]: monitoring the conversion of L-arginine to citrulline |
| CSS(C)(=O)=O [MMTS, s-methyl methanethiosulfonate] |  | k2 ([3]; 2.5-85 µM): 15.68 ± 0.9 M⁻¹ s⁻¹ |
| COc1ccc2[nH]c([S+]([O-])Cc3ncc(C)c(OC)c3C)nc2c1 (stereo not drawn) [omeprazole] | all of these drugs were able to inhibit recombinant GlADI in vitro in a dose-dependent manner |  |
| COCCCOc1ccnc(C[S+]([O-])c2nc3ccccc3[nH]2)c1C (stereo not drawn) [rabeprazole] |  | k2 ([3]; 5-110 µM): 6.72 ± 0.2 M⁻¹ s⁻¹ |
